In patent publication EP0046707B1, “Derivatives of 4-aminobutyric acid and the medicines especially active on the central nervous system containing them” (priority 1980, dated 1982):
Read-outs that look alike come from different tables or passages of the source.

Experiments:
souris [1] = assay: Actography (locomotor activity, two perpendicular light beams); format: in vivo; conditions: mouse, 500 mg/kg oral
Experimental: La mesure de l'actographie est effectuée chez la souris 45 min. après l'administration du produit. On opère sur des lots de 12 animaux, chacun d'eux étant isolé pendant 10 min. avant la mesure. Le comptage des scores est effectué par coupure de deux faisceaux lumineux perpendiculaires.
Dans le tableau IV ci-après sont rassemblés les résultats obtenus avec divers produits de l'invention administrés à la dose de 500 mg/kg par voie orale. Les résultats sont exprimés en pourcentage de variation des scores obtenus par rapport à des animaux témoins non traités.
On peut constater que les produits se répartissent en deux groupes : • ceux provoquant de l'hypomotilité tels que 40217, 40039, 40271, 40272, 40319; dans le cas où les animaux traités présentent une perte du réflexe de retournement, ce qui traduit l'effet de narcose propre du produit, on a noté PRR; • ceux provoquant de l'hypermotilité, tels que 40142, 40398, 40397, 40404, 40253, 40355, 40209; pour préciser les résultats obtenus, l'étude pour deux produits a été reprise en effet-dose suivant le même protocole. • Les résultats obtenus figurent dans le tableau V ci-après.

souris [2] = assay: Potentiation of pentobarbital narcosis (loss of righting reflex); format: in vivo; conditions: po; mouse, p. os 1 h before pentobarbital 20 mg/kg i.p.; unit not given for DE 50; read-out: dose (p. os) provoquant 50 % d'induction de narcose (DE 50)
Experimental: Les produits à étudier ont été administrés per os chez la souris à la dose de 500 mg/kg, 1 h avant le pentobarbital injecté par voie intrapéritonéale à raison de 20 mg/kg.
On détermine le pourcentage des animaux ayant perdu le réflexe de retournement. Les résultats sont exprimés en pourcentage ou, dans quelques cas, en dose efficace 50 (DE 50) ou dose provoquant la narcose chez 50 % des animaux traités.
Les résultats figurent dans le tableau VI ci-après.

rats = assay: Electroencephalographic study (sleep/wake analysis per 24 h); format: in vivo; conditions: rat; for EV / SL / SP / ST: per 24 h
Experimental: Pour mieux comprendre l'activité hypnotique des produits selon l'invention, une étude électroencéphalographique a été effectuée sur l'un deux, à savoir CM 40039.
[…] Après une période d'habituation de 10 jours (période éclairée de 8 h à 20 h et période obscure de 20 h à 8 h), les animaux sont enregistrés pendant 5 jours avec le solvant (gomme arabique à 10 %), puis enregistrés pendant 4 jours pendant lesquels ils reçoivent le produit à 9 h chaque matin. Après cette administration chronique, les animaux sont enregistrés les 5 jours suivants (période de contrôle).
Les animaux sont enregistrés 24 h sur 24. L'étude statistique porte sur des tranches de 24 h. On fait une analyse globale sur les trois rats en cumulant les 15 journées témoins, les 12 journées de traitement, les 15 journées de contrôle. Dans chaque tranche horaire de 24 h, on évalue le temps d'éveil (EV), de sommeil lent (SL), de sommeil paradoxal (SP), de sommeil total (ST), ainsi que le rapport (en %) sommeil paradoxal/sommeil total (SP/ST) (voir tableau VII ci-après).

souris [3] = assay: Anticonvulsant effect against bicuculline-induced tonic seizures; format: in vivo; conditions: 1 h; mouse, bicuculline 1 mg/kg i.v. 60 min after oral dosing; read-out: Dose efficace médiane de protection des crises toniques (DE 50) Bicuculline
Experimental: (§1) L'effet anticonvulsivant a été déterminé vis-à-vis des crises convulsives provoquées par l'électrochoc ou par la bicuculline.
La bicuculline est administrée à la souris par voie intraveineuse à raison de 1 mg/kg, 60 min après le produit à étudier donné per os. On note l'effet protecteur obtenu vis-à-vis des crises toniques.
(§2) En opérant sur divers lots d'animaux avec des doses différentes du produit à étudier, on peut déterminer la dose efficace médiane (DE 50).
(§3) Les résultats sont rassemblés dans le tableau VIII ci-après et montrent les propriétés anticonvulsivan- tes nettes des produits étudiés.

souris [4] = assay: Anticonvulsant effect against electroshock seizures; format: in vivo; conditions: 1 h; mouse, electroshock 12.5 V for 0.5 s, 60 min after oral dosing; read-out: Dose efficace médiane de protection des crises toniques (DE 50) Electrochoc
Experimental: as §1
L'électrochoc (12,5 V pendant 0,5 s) est effectué chez la souris 60 min après l'administration du produit par voie orale.
as §2, §3

[5] = test system: GABA (acide amino-4 butyrique); assay: Effect on whole-brain GABA level; format: in vivo, souris
Experimental: Le 40039 a été administré 30 min avant le sacrifice chez la souris. Le taux de GABA a été évalué sur le cerveau entier (lots de 6 animaux) (voir tableau IX ci-après).

[6] = test system: acide homovanillique (HVA); assay: Effect on central dopaminergic activity (homovanillic acid accumulation in whole brain); format: in vivo, souris; conditions: mouse whole brain, 500 mg/kg p.os
Experimental: L'effet des produits sur l'activité dopaminergique centrale a été étudié par la mesure de l'accumulation de l'acide homovanillique sur une période de 24 h après l'administration des produits chez la souris.
Le taux d'acide homovanillique (HVA) est évalué dans le cerveau entier, les animaux reçoivent une injection de probenecid (200 mg/kg i.p.) 1 h 30 min avant le sacrifice (lot de 10 animaux).

[7] = Acute toxicity (mortality over 24 h); conditions: in vivo, po, mouse, observed 24 h
Experimental: Les produits à étudier sont administrés par voie orale aux doses de 500 et 1 000 mg/kg à des lots de souris. On observe les souris pendant 24 h et note la mortalité.
Les résultats exprimés en pourcentage de mortalité figurent dans le tableau XI ci-après.

[8] = post-treatment 'Contrôle' period

With `CCCCN(CCCC)C(=O)CCCNC(=O)CCC` [40 039, Butyl-10 dioxo-4,9 diaza-5,10 tétradécane] the “Mesure de l'actographie (p. cent scores/témoins)” value (souris [1]; 45 min after dosing, change of scores vs untreated controls, PRR = loss of righting reflex) was “PRR”, the “hypomotilité / hypermotilité” value (souris [1]; grouping in words) was “hypomotilité” and the ED50 (souris [2]) was 200 mg/kg. For the same compound, the EV (rats; 'Contrôle' = 5 days after end of chronic treatment) was 40,3 ± 3,6, the SP/ST (rats; [8]) was 13,5 ± 1,8% and the SL (rats; [8]) was 51 ± 3. The SP (rats; [8]) was 8,6 ± 1,7, the ST (rats; [8]) was 59,6 ± 3,9 and the EV (rats; treatment period (12 days pooled, 3 rats), 325 mg/kg as in table head, wake time) was 40,6 ± 3. The SP (rats; treatment period, paradoxical sleep) was 8,1 ± 1,4, the SL (rats; treatment period, slow-wave sleep) was 51,5 ± 2 and the ST (rats; treatment period, total sleep) was 59,5 ± 2,6. The SP/ST (rats; treatment period, ratio paradoxical/total sleep) was 13,2 ± 1,9%, the ED50 (souris [3]) was 300 mg/kg and the ED50 (souris [4]) was 250 mg/kg. The “Taux de GABA en µg/g cerveau” value ([5]; mouse whole brain, 500 mg/kg p. os, 30 min before sacrifice) was 321 ± 12 µg/g cerveau, the “Taux de GABA p.cent/témoins” value ([5]; mouse whole brain, 500 mg/kg p. os, change vs controls) was 14,6 p.cent and the “taux de GABA dans le cerveau total” value ([5]; mouse, result in words) was “rapide augmentation”. For the same compound, the “Taux de HVA en” value ([6]; 2 h) was 798 ± 34 ng/g, the “Taux de HVA en” value ([6]; 4 h) was 894 ± 37 ng/g and the “Taux de HVA en” value ([6]; 6 h) was 659 ± 29 ng/g. For the same compound, the “Taux de HVA (variation vs 0)” value ([6]; 6 h, change vs time 0) was 0%, the “Taux de HVA en” value ([6]; 24 h) was 441 ± 19 ng/g and the “Taux de HVA en” value ([6]; time 0 (baseline)) was 658 ± 40 ng/g. The mortality at 24 h ([7]; 500 mg/kg p. os, read-out: p. cent de mortalité à 500 mg/kg p. os) was 0% and the mortality at 24 h ([7]; 1000 mg/kg p. os, read-out: p. cent de mortalité à 1000 mg/kg p. os) was 100%.
